Test results published in US20020119993A1, “Potentiator for neurotrophin effect” (SANKO COMPANY, LIMITED, priority 1999, published 2002).

What was measured:
[1] = tested on: sensory neurons in the dorsal root ganglion of the rat spinal cord; experiment: Survival of sensory neurons of the dorsal root ganglion of the rat spinal cord; format: cell-based; conditions: for Effect on NGF or NT-3 prolonged survival of sensory neurons in the dorsal root ganglion (in words): with NGF or NT-3
Experimental: Effects on Survival of Ganglion Sensory Neurons in Dorsal Spinal Root Ganglion of the Rat Spinal Cord
The dorsal root ganglion of the spinal cord was isolated from fetuses of the SD rat (Nippon SLC) on 17 days definite pregnancy under a stereoscopic microscope. The ganglion was then treated with 1 mg/ml of collagenase, 2 mg/ml of trypsin and 2 mg/ml of DNase I, followed by dispersion in an MEM medium containing 10% bovine fetal serum. Immediately after the sensory neuron suspension was charged in a 12-well plate (Becton Dickinson Labware) which was coated in advance with laminin and poly-D-lysine, a neurotrophin (NGF or NT-3) and 1-amino-3,8-dichloro-6(5H)-phenanthridinone (Compound No. 166) or 6(5H)-phenanthridinone (Compound A) were added. When half of the medium was exchanged on the next day, cytosine arabinoside was added to the culture medium at a final concentration of 10 μM, in order to cause cell death other than to neurons. A neurotrophin and the test compound were added to the medium at their original concentrations. After culturing for a further two days, the neurons were photographed under a microscope and the number of viable neurons was counted.

[2] = tested on: neurotrophin receptor Trk; experiment: Neurotrophin receptor Trk activation (phosphotyrosine) in hippocampal and strial tissue slices of matured rat; format: cell-based; conditions: for Amount of neurotrophin receptor Trk activated in matured rat cerebral tissues: relative to the amount (100) activated by NGF in the strial tissue
Experimental: Enhancing Action of Neurotrophin Response in Hippocampal and Strial Tissue Slices of Matured Rat
Male SD rats (Nippon SLC) were decapitated under anesthesia and the hippocampus and the corpus striatum were isolated. The tissue was cut into 0.2×0.2 mm slices with a “McIlwain Tissue Chopper” (Mickle Laboratory Engineering Company), and were suspended in a DMEM medium. A neurotrophin (NGF or NT-3) and 1-amino-3,8-dichloro-6(5H)-phenanthridinone were added to the suspension and the mixture was kept at 37° C. for 20 minutes. After washing the tissue with ice-cooled tris buffer physiological saline (TBS), the mixture was stirred vigorously and dissolved in TBS containing 1% Triton-X100, 10 μg/ml of leupeptin, 10 µg/ml of aprotinin, 1 mM of phenylmethylsulfonyl fluoride and 1 mM of sodium vanadate. After centrifugation at 14000 g for 15 minutes, the amount of protein in the supernatant was determined with Protein Assay Kit (Bio-Rad Laboratories, Ltd.). Anti-Trk antibody C-14 (Santa Cruz Biotechnology Inc) which specifically binds to Trk, a neurotrophin receptor, was added to the extract which was adjusted to contain an equal amount of protein and mixed at 4° C. for 16 hours. Thus the Trk receptor in the tissue extract formed an immunocomplex with the antibody. The immunocomplex was precipitated with protein A Sepharose beads (Amersham Pharmacia Biotech). The Trk protein collected was separated from other proteins by sodium dodecyl sulfate-polyacrylamide gel electrophoresis and then transferred to a nitrocellulose membrane by Western blot assay. The membrane was reacted with Antibody 4G10 (Upstate Biotechnology Inc) which recognizes phosphotyrosine and the amount of phosphotyrosine of the Trk protein fixed on the membrane was visualized on a film by an enhanced chemiluminescence kit (Amersham Pharmacia Biotech). The film was photographed by a digital camera and the density of the band was determined by digital image analyzing software (Eastman Kodak Company).

PC12 cells = experiment: Induction of differentiation (neurite outgrowth) in PC12 cells with neurotrophin; format: cell-based, rat; conditions: for Ratio of PC12 cells having an outgrowth (%): 72 hours; for Differentiation-induction of PC12 cells by neurotrophin alone (in words): neurotrophin used alone
Source text: Induction of Differentiation in […] strain (PC12 cell) derived from Rat Adrenal Medulla
PC12 cells were suspended in a DEM medium containing 10% equine serum and 5% bovine serum and the resulting suspension was charged in a collagen-coated 24-well plate. Twenty-four hours later, the medium was exchanged. A neurotrophin [human recombinant NGF or NT-3 (Austral Biologicals)] and 1-amino-3,8-dichloro-6(5H)-phenanthridinone (Compound No. 166) synthesized in accordance with the process described in Journal of Heterocyclic Chemistry, Z, 597 (1970), were added and cultured for 72 hours. After the medium was discarded, the cells were fixed with 2% glutaraldehyde and were observed under a microscope. The ratio of the cells having a longer outgrowth than the cell body was determined.

[3] = Table 4, NT-3 100 ng/ml + compound 1 μM
[4] = Table 4, neurotrophin-free, compound 1 μM

Molecule: O=c1[nH]c2ccccc2c2ccccc12 [Compound A, 6(5H)-phenanthridinone, reference compound]
- Number of viable sensory neurons in the dorsal root ganglion of the rat spinal cord (per mm^2) [1, 3]: 37 ± 3.6 per mm^2
- Number of viable sensory neurons in the dorsal root ganglion of the rat spinal cord (per mm^2) [1, 4]: 6 ± 0.8 per mm^2
- Effect on NGF or NT-3 prolonged survival of sensory neurons in the dorsal root ganglion (in words) [1]: had no effects

Molecule: NT-3: neurotrophin-3, a neurotrophin (Austral Biologicals)
- Amount of neurotrophin receptor Trk activated in matured rat cerebral tissues ([2]; Corpus striatum, NT-3 100 ng/ml alone): 12
- Amount of neurotrophin receptor Trk activated in matured rat cerebral tissues ([2]; Hippocampus, NT-3 100 ng/ml alone): 27
- Number of viable sensory neurons in the dorsal root ganglion of the rat spinal cord (per mm^2) ([1]; Table 3, neurotrophin alone 100 ng/ml, compound-free): 19 ± 5.0 per mm^2
- Number of viable sensory neurons in the dorsal root ganglion of the rat spinal cord (per mm^2) ([1]; Table 4, neurotrophin alone 100 ng/ml, compound-free): 33 ± 4.9 per mm^2
- Ratio of PC12 cells having an outgrowth (%) (PC12 cells; neurotrophin alone 100 ng/ml, compound-free): 2 ± 0.6%
- Differentiation-induction of PC12 cells by neurotrophin alone (in words) (PC12 cells): did not cause any sufficient differentiation-induction by itself

Molecule: Nc1cc(Cl)cc2[nH]c(=O)c3cc(Cl)ccc3c12 [Compound No. 166, 1-amino-3,8-dichloro-6(5H)-phenanthridinone]
- Amount of neurotrophin receptor Trk activated in matured rat cerebral tissues ([2]; Corpus striatum, NT-3 100 ng/ml + compound 30 μM): 68
- Amount of neurotrophin receptor Trk activated in matured rat cerebral tissues ([2]; Hippocampus, NT-3 100 ng/ml + compound 30 μM): 58
- Neurotrophin enhancing action in the adult central nervous system (in words) ([2]; matured rat cerebral tissue slices, Table 5): has a neurotrophin enhancing action in the adult central nervous system
- Number of viable sensory neurons in the dorsal root ganglion of the rat spinal cord (per mm^2) ([1]; Table 3, NGF 1 ng/ml + compound 3 μM): 71 ± 1.7 per mm^2
- Number of viable sensory neurons in the dorsal root ganglion of the rat spinal cord (per mm^2) ([1]; Table 3, NT-3 100 ng/ml + compound 3 μM): 168 ± 21.1 per mm^2
- Number of viable sensory neurons in the dorsal root ganglion of the rat spinal cord (per mm^2) ([1]; Table 3, neurotrophin-free, compound 3 μM): 24 ± 1.6 per mm^2
- Number of viable sensory neurons in the dorsal root ganglion of the rat spinal cord (per mm^2) [1, 3]: 133 ± 13.1 per mm^2
- Number of viable sensory neurons in the dorsal root ganglion of the rat spinal cord (per mm^2) [1, 4]: 11 ± 4.0 per mm^2
- Effect on NGF or NT-3 prolonged survival of sensory neurons in the dorsal root ganglion (in words) [1]: markedly potentiated the effects of NGF or NT-3
- Ratio of PC12 cells having an outgrowth (%) (PC12 cells; NGF 5 ng/ml + compound 3 μM): 12 ± 1.3%
- Ratio of PC12 cells having an outgrowth (%) (PC12 cells; NGF 5 ng/ml + compound 30 μM): 29 ± 2.6%
- Ratio of PC12 cells having an outgrowth (%) (PC12 cells; NGF 20 ng/ml + compound 3 μM): 51 ± 6.5%
- Ratio of PC12 cells having an outgrowth (%) (PC12 cells; NGF 20 ng/ml + compound 30 μM): 72 ± 2.0%
- Ratio of PC12 cells having an outgrowth (%) (PC12 cells; NGF 50 ng/ml + compound 3 μM): 79 ± 3.0%
- Ratio of PC12 cells having an outgrowth (%) (PC12 cells; NGF 50 ng/ml + compound 30 μM): 88 ± 0.7%
- Ratio of PC12 cells having an outgrowth (%) (PC12 cells; NT-3 100 ng/ml + compound 3 μM): 62 ± 0.2%
- Ratio of PC12 cells having an outgrowth (%) (PC12 cells; NT-3 100 ng/ml + compound 30 μM): 73 ± 3.6%
- Effect on NGF-induced differentiation and neurite outgrowth in PC12 cells (in words) (PC12 cells; applied with NGF): potentiated the NGF-induced differentiation and neurite outgrowth in PC12 cells
- Effect on differentiation-induction of PC12 cells (in words) (PC12 cells; combined application with NT-3): markedly potentiated the differentiation-induction of PC12 cells

Molecule: NGF: human recombinant NGF (nerve growth factor), a neurotrophin (Austral Biologicals)
- Number of viable sensory neurons in the dorsal root ganglion of the rat spinal cord (per mm^2) ([1]; Table 3, neurotrophin alone 1 ng/ml, compound-free): 44 ± 5.5 per mm^2
- Ratio of PC12 cells having an outgrowth (%) (PC12 cells; neurotrophin alone 5 ng/ml, compound-free): 8 ± 0.9%
- Ratio of PC12 cells having an outgrowth (%) (PC12 cells; neurotrophin alone 20 ng/ml, compound-free): 27 ± 2.8%
- Ratio of PC12 cells having an outgrowth (%) (PC12 cells; neurotrophin alone 50 ng/ml, compound-free): 57 ± 3.6%
- Differentiation-induction of PC12 cells by neurotrophin alone (in words) (PC12 cells): induced differentiation of PC12 cells
